Test results from patent US10053454B2 (Bristol-Myers Squibb Company, priority 2013, dated 2018).

Molecular target: BRD4 (Homo sapiens, UniProt O60885)
Test: Time Resolved Fluorescence Resonance Energy Transfer (TR-FRET) binding assay
Conditions: one of the FRET assays described (BRD4 construct not given)

SMILES	IC50 [µM]
Cc1noc(C)c1-c1cc(C(N)=O)c2c(c1)c1ccc(-c3ccncc3)cc1n2CC1CC1 [Example 36, 9-(cyclopropylmethyl)-3-(3,5-dimethyl-4-isoxazolyl)-7-(4-pyridinyl)-9H-carbazole-1-carboxamide]	< 0.5
CNc1ccc2c3cc(-c4c(C)noc4C)cc(C(N)=O)c3n(CC3CC3)c2c1 [Example 37, 9-(cyclopropylmethyl)-3-(3,5-dimethyl-4-isoxazolyl)-7-(methylamino)-9H-carbazole-1-carboxamide]	< 0.5
Cc1noc(C)c1-c1cc(C(N)=O)c2c(c1)c1ccc(N(C)C)cc1n2CC1CC1 [Example 38, 9-(cyclopropylmethyl)-7-(dimethylamino)-3-(3,5-dimethyl-4-isoxazolyl)-9H-carbazole-1-carboxamide]	< 0.05
Cc1noc(C)c1-c1cc(C(N)=O)c2c(c1)c1ccc(NCC3CCCC3)cc1n2CC1CC1 [Example 39, 7-(cyclopentylmethylamino)-9-(cyclopropylmethyl)-3-(3,5-dimethyl-4-isoxazolyl)-9H-carbazole-1-carboxamide]	< 0.5
CC(=O)N(C)c1ccc2c3cc(-c4c(C)noc4C)cc(C(N)=O)c3n(CC3CC3)c2c1 [Example 40, 7-(acetyl(methyl)amino)-9-(cyclopropylmethyl)-3-(3,5-dimethyl-4-isoxazolyl)-9H-carbazole-1-carboxamide]	< 0.05
Cc1noc(C)c1-c1cc(C(N)=O)c2c(c1)c1ccc(N3CCCCC3=O)cc1n2CC1CC1 [Example 42, 9-(cyclopropylmethyl)-3-(3,5-dimethyl-4-isoxazolyl)-7-(2-oxo-1-piperidinyl)-9H-carbazole-1-carboxamide]	< 0.5
Cc1noc(C)c1-c1cc(C(N)=O)c2c(c1)c1ccc(N3CCCOC3=O)cc1n2CC1CC1 [Example 43, 9-(cyclopropylmethyl)-3-(3,5-dimethyl-4-isoxazolyl)-7-(2-oxo-1,3-oxazinan-3-yl)-9H-carbazole-1-carboxamide]	< 0.05
Cc1noc(C)c1-c1cc(C(N)=O)c2c(c1)c1ccc(N3CCOC3=O)cc1n2CC1CC1 [Example 45, 9-(cyclopropylmethyl)-3-(3,5-dimethyl-4-isoxazolyl)-7-(2-oxo-1,3-oxazolidin-3-yl)-9H-carbazole-1-carboxamide]	< 0.5
Cc1noc(C)c1-c1cc(C(N)=O)c2c(c1)c1ccc(CO)cc1n2CC1CC1 [Example 46, 9-(cyclopropylmethyl)-3-(3,5-dimethyl-4-isoxazolyl)-7-(hydroxymethyl)-9H-carbazole-1-carboxamide]	< 0.5
Cc1noc(C)c1-c1cc(C(N)=O)c2c(c1)c1ccc(C=O)cc1n2CC1CC1 [Example 47, 9-(cyclopropylmethyl)-3-(3,5-dimethyl-4-isoxazolyl)-7-formyl-9H-carbazole-1-carboxamide]	< 0.5
Cc1noc(C)c1-c1cc(C(N)=O)c2c(c1)c1ccc(O)cc1n2CC1CC1 [Example 48, 9-(cyclopropylmethyl)-3-(3,5-dimethyl-4-isoxazolyl)-7-hydroxy-9H-carbazole-1-carboxamide]	< 0.5
COc1ccc2c3cc(-c4c(C)noc4C)cc(C(N)=O)c3n(CC3CC3)c2c1 [Example 49, 9-(cyclopropylmethyl)-3-(3,5-dimethyl-4-isoxazolyl)-7-methoxy-9H-carbazole-1-carboxamide]	< 0.05
Cc1noc(C)c1-c1cc(C(N)=O)c2c(c1)c1ccc(OC(=O)N3CCOCC3)cc1n2CC1CC1 [Example 50, 8-carbamoyl-9-(cyclopropylmethyl)-6-(3,5-dimethyl-4-isoxazolyl)-9H-carbazol-2-yl morpholine-4-carboxylate]	< 0.5
Cc1noc(C)c1-c1cc(C(N)=O)c2c(c1)c1ccc(CN3CCOCC3)cc1n2CC1CC1 [Example 51, 9-(cyclopropylmethyl)-3-(3,5-dimethyl-4-isoxazolyl)-7-(4-morpholinylmethyl)-9H-carbazole-1-carboxamide]	< 0.5
